Peptide text beside a SMILES is read from it. * marks the point of attachment. Palmitoyl = CCCCCCCCCCCCCCCC(=O)*
Experiments:
HEK 293 cells [1] = test system: HEK 293 cells
Protocol: Pepducins are composed of a synthetic peptide, mimicking an intracellular GPCR loop, to which a hydrophobic moiety, most commonly the fully saturated C16 fatty acid palmitate, is conjugated at their N-termini ([39]). […] The second pepducin ([Trp^1, Leu^2]hUT-Pep3) comprises the hUT ICL3 sequence; however, the first two N-terminal amino acids were replaced by the corresponding residues from rat UT ICL3 (-Arg-Arg-in hUT and -Trp-Leu- in rUT).
Toxicity of hUT-derived pepducins was evaluated using (A) MTT or (B) LDH assays in HEK 293-hUT cells.
HEK 293 cells were seeded at a density of 2 × 10^4 cells/well in 96 well-plates and cultured at 37 °C for 24 h. Cells were then incubated in serum-free media with hUT-derived pepducins at various concentrations (10^−8 M–10^−4 M). Viability was assessed with an MTS kit (CellTiter 96 AQueous, Promega) and a microplate reader (MTX^TC Revelation, Dynex Tech) in order to determine the optical density related to the conversion of MTS into purple-colored water-soluble formazan. Positive control (cells treated with 10% DMSO) and negative control (nontreated cells) were included in each experiment. Results were expressed as the percentage of control (nontreated cells). The presence of lactate dehydrogenase (LDH), released in the culture medium from dead cells, was also determined using a commercial LDH kit (BioVision). Positive control (cells treated with lysis buffer) and negative control (nontreated cells) were included in each experiment. Results were expressed as the percentage of the maximum LDH release following cell lysis.

CHO-K1 cells = assay: IP1 production, IP-One terbium immunoassay, untransfected CHO-K1 cells; type: cell-based; conditions: CHO-K1, 40 min incubation
Protocol: This assay, performed with the IP-One terbium immunoassay kits from Cisbio, was used according to the manufacturer recommendation and as previously described ([43]). Briefly, CHO-hUT cells were grown in 10-cm dishes for 24 h. The cells were then starved without serum. The next day, cells were washed once with PBS and collected in PBS containing 20 mM EDTA. For the assay, 80,000 cells per well (96-well plate) were used. […] IP1-d2 and anti-IP1-cryptate were added for an additional 2 h at room temperature. Plates were read on a Flexstation 3 microplate reader.
[Trp1, Leu2]hUT-Pep3. IP1 production was evaluated using the IP-One terbium immunoassay
kitsinCHO-K1 cells.Each histogram represents the mean ± SEM of atleast threeindependent
experiments performed in triplicate.
(also on this page, place not known: (% Maximal Response) FigureS3.IP1productioninCHO-K1cellsfollowingtreatmentbyhUII,hUT-Pep2or [Trp1,Leu2]hUT-Pep3.IP1productionwasevaluatedusingtheIP-Oneterbiumimmunoassay kitsinCHO-K1cells.Eachhistogramrepresentsthemean±SEMofatleastthreeindependent experimentsperformedintriplicate.)

HEK 293 cells [2] = assay: Cell proliferation, MTT assay, HEK 293 cells without receptor; type: cell-based; conditions: 10^−6 M
Excerpt: Each bar corresponds to the mean ± SEM obtained from three independent experiments conducted in triplicate.

rat thoracic aorta rings = target: T1, rat thoracic aorta rings (Rattus norvegicus, UniProt P49684); assay: Modulation of URP-mediated rat aortic ring contraction; conditions: pepducin 10^−6 M 30 min prior to URP, percentage of KCl (40 mM) contraction divided by tissue response to URP (10^−6 M), mean ± SEM, n = 5, read-out: URP Emax after pepducin pretreatment
T1 sequence (P49684 1-386): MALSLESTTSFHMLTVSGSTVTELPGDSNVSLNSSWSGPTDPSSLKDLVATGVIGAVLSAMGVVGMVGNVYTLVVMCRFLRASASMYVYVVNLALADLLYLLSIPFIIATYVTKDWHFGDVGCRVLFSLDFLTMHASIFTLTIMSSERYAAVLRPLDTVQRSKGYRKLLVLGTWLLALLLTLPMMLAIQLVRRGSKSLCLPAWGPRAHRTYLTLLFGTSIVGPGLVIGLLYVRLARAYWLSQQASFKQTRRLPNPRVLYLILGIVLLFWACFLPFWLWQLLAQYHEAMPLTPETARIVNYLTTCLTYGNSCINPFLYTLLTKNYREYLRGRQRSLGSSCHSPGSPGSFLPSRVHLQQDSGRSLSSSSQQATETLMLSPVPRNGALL
Protocol: Each replicate (n) was conducted on tissue obtained from at least three different animals. Data represent mean ± SEM.
Adult male Sprague-Dawley rats (Charles-River) weighing 250–300 g were housed in cages under controlled illumination (12:12 h light–dark cycle), humidity, and temperature (21–23 °C) and had free access to tap water and rat chow. All experimental procedures were performed in accordance with regulations and ethical guidelines from the Canadian Council for the Care of Laboratory Animals and received approvals of the institutional animal care and use committee of the Institut National de la Recherche Scientifique—Centre Armand-Frappier Santé Biotechnologie. As previously described ([17], [18]), the thoracic aorta was cleared of surrounding tissue and then excised from the aortic arch to the diaphragm. Conjunctive tissues were next removed from the thoracic aorta and the vessels were divided into five rings of 4 mm. The endothelium of each aortic ring was removed by gently rubbing the vessel intimal surface. Aortic rings were then placed in a 5 ml organ bath filled with oxygenated normal Krebs–Henseleit buffer. Eighty microliters of a 2.5 M potassium chloride solution (40 mM final concentration) was used to evaluate maximal contractile responses of each vessel. […] Cumulative concentration–response curves to synthetic peptides were obtained by increasing the concentration of each peptide in the remaining organ chambers (10^−11–10^−5 M).

SMILES	effect on cell viability at 10^−4 M (HEK 293 cells [1])	effect on cell viability up to 10^−5 M (HEK 293 cells [1])	IP1 production in untransfected CHO-K1 cells (CHO-K1 cells)	HEK 293 cell proliferation in absence of receptor (HEK 293 cells [2])	Emax (rat thoracic aorta rings)
CCCCCCCCCCCCCCCC(=O)N[C@@H](Cc1c[nH]c2ccccc12)C(=O)N[C@@H](CC(C)C)C(=O)N[C@@H](CO)C(=O)N[C@@H](CCC(N)=O)C(=O)N[C@@H](CCCNC(=N)N)C(=O)N[C@@H](C)C(=O)N[C@@H](CO)C(=O)N[C@@H](Cc1ccccc1)C(=O)N[C@@H](CCCCN)C(=O)N[C@@H](CCCNC(=N)N)C(=O)N[C@@H](C)C(=O)N[C@@H](CCCNC(=N)N)C(=O)N[C@@H](CCCNC(=N)N)C(N)=O [[Trp^1, Leu^2]hUT-Pep3] (Palmitoyl-WLSQRASFKRARR-NH2)	as cytotoxic as unmodified hUT-Pep3 at 10^−7 M	did not significantly affect HEK 293 cell viability	not untransfected CHO-K1 cells	completely abrogated	16 ± 2%
CC(C)[C@H](NC(=O)[C@@H]1CSSC[C@H](NC(=O)[C@H](CC(=O)O)NC(=O)[C@@H]2CCCN2C(=O)[C@@H](NC(=O)[C@@H](N)CCC(=O)O)[C@@H](C)O)C(=O)N[C@@H](Cc2ccccc2)C(=O)N[C@@H](Cc2c[nH]c3ccccc23)C(=O)N[C@@H](CCCCN)C(=O)N[C@@H](Cc2ccc(O)cc2)C(=O)N1)C(=O)O [hUII, urotensin II, reference compound]	–	–	–	completely abrogated	–
CCCCCCCCCCCCCCCC(=O)N[C@@H](CCCNC(=N)N)C(=O)N1CCC[C@H]1C(=O)N[C@@H](CC(C)C)C(=O)N[C@@H](CC(=O)O)C(=O)N[C@H](C(=O)N[C@H](C(=O)N[C@@H](CCC(N)=O)C(=O)N[C@@H](CCCNC(=N)N)C(=O)N1CCC[C@H]1C(=O)N[C@@H](CCCCN)C(=O)NCC(=O)N[C@@H](Cc1ccc(O)cc1)C(N)=O)C(C)C)[C@@H](C)O [hUT-Pep2] (Palmitoyl-RPLDTVQRPKGY-NH2)	as cytotoxic as unmodified hUT-Pep3 at 10^−7 M	did not significantly affect HEK 293 cell viability	not untransfected CHO-K1 cells	–	76 ± 8%

Reference: article PMC8424217 (The Journal of Biological Chemistry, 2021)
